Data as given in PubChem BioAssay (NCI).
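GI50 is the concentration that inhibits growth by half. Definition used: TGI = concentration required for complete inhibition of growth.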

Legend:
Experiment in all cases: DTP human tumour cell line panel, 384-well format
OVCAR-3 ovarian = test system: OVCAR-3 ovarian
SK-OV-3 ovarian = test system: SK-OV-3 ovarian
U251 glioblastoma = test system: U251 glioblastoma
UACC-62 melanoma = test system: UACC-62 melanoma
RXF 393 renal = test system: RXF 393 renal
HOP-62 NSCLC = test system: HOP-62 NSCLC
SK-MEL-28 melanoma = test system: SK-MEL-28 melanoma
SN12C renal = test system: SN12C renal
SW-620 colon = test system: SW-620 colon
SK-MEL-2 melanoma = test system: SK-MEL-2 melanoma
BT-549 breast = test system: BT-549 breast
HCC-2998 colon = test system: HCC-2998 colon
NCI/ADR-RES ovarian = test system: NCI/ADR-RES ovarian
786-0 renal = test system: 786-0 renal
K-562 leukemia = test system: K-562 leukemia
MALME-3M melanoma = test system: MALME-3M melanoma
IGROV1 ovarian = test system: IGROV1 ovarian
CCRF-CEM leukemia = test system: CCRF-CEM leukemia
LOX IMVI melanoma = test system: LOX IMVI melanoma
OVCAR-4 ovarian = test system: OVCAR-4 ovarian
HOP-92 NSCLC = test system: HOP-92 NSCLC
T-47D breast = test system: T-47D breast
OVCAR-5 ovarian = test system: OVCAR-5 ovarian
TK-10 renal = test system: TK-10 renal
SF-268 CNS = test system: SF-268 CNS
NCI-H322M lung = test system: NCI-H322M lung
HCT-116 colon = test system: HCT-116 colon
A549 NSCLC = test system: A549 NSCLC
RPMI-8226 leukemia = test system: RPMI-8226 leukemia
UO-31 renal = test system: UO-31 renal
SK-MEL-5 melanoma = test system: SK-MEL-5 melanoma
NCI-H522 lung = test system: NCI-H522 lung
NCI-H226 lung = test system: NCI-H226 lung
A498 renal = test system: A498 renal
MDA-MB-468 breast = test system: MDA-MB-468 breast
DU-145 prostate = test system: DU-145 prostate
HL-60(TB) leukemia = test system: HL-60(TB) leukemia
HCT-15 colon = test system: HCT-15 colon
MCF7 breast = test system: MCF7 breast
MDA-MB-231 breast = test system: MDA-MB-231 breast
SF-539 CNS = test system: SF-539 CNS
MDA-MB-435 melanoma = test system: MDA-MB-435 melanoma
PC-3 prostate = test system: PC-3 prostate
SNB-19 CNS = test system: SNB-19 CNS
NCI-H23 lung = test system: NCI-H23 lung
SR leukemia = test system: SR leukemia
CAKI-1 renal = test system: CAKI-1 renal
SF-295 CNS = test system: SF-295 CNS
HT29 colon = test system: HT29 colon
OVCAR-8 ovarian = test system: OVCAR-8 ovarian
KM12 colon = test system: KM12 colon
M14 melanoma = test system: M14 melanoma
MOLT-4 leukemia = test system: MOLT-4 leukemia
UACC-257 melanoma = test system: UACC-257 melanoma
NCI-H460 NSCLC = test system: NCI-H460 NSCLC
ACHN renal = test system: ACHN renal
COLO 205 colon = test system: COLO 205 colon

Cc1cc2c(C(=O)NC[C@H](C)c3ccccc3)c(O)c(O)cc2c(O)c1-c1c(C)cc2c(C(=O)NC[C@H](C)c3ccccc3)c(O)c(O)cc2c1O
GI50 (OVCAR-3 ovarian): 0.613 µM | TGI (OVCAR-3 ovarian): 2.08 µM | GI50 (SK-OV-3 ovarian): 1.5 µM | TGI (SK-OV-3 ovarian): 3.9 µM | GI50 (U251 glioblastoma): 0.281 µM | TGI (U251 glioblastoma): 0.723 µM | GI50 (UACC-62 melanoma): 0.486 µM | TGI (UACC-62 melanoma): 1.63 µM | GI50 (RXF 393 renal): 0.201 µM | TGI (RXF 393 renal): 0.625 µM | GI50 (HOP-62 NSCLC): 0.666 µM | TGI (HOP-62 NSCLC): 2.09 µM | GI50 (SK-MEL-28 melanoma): 0.606 µM | TGI (SK-MEL-28 melanoma): 2.4 µM | GI50 (SN12C renal): 0.837 µM | TGI (SN12C renal): 2.3 µM | GI50 (SW-620 colon): 1.48 µM | TGI (SW-620 colon): 3.62 µM | GI50 (SK-MEL-2 melanoma): 0.24 µM | TGI (SK-MEL-2 melanoma): 1.03 µM | GI50 (BT-549 breast): 0.243 µM | TGI (BT-549 breast): 0.582 µM | GI50 (HCC-2998 colon): 1.38 µM | TGI (HCC-2998 colon): 3.2 µM | GI50 (NCI/ADR-RES ovarian): 2.15 µM | TGI (NCI/ADR-RES ovarian): 5.33 µM | GI50 ([…]-0 renal): 1.17 µM | TGI (786-0 renal): 2.8 µM | GI50 (K-562 leukemia): 0.328 µM | TGI (K-562 leukemia): 1.21 µM | GI50 (MALME-3M melanoma): 1.59 µM | TGI (MALME-3M melanoma): 4.43 µM | GI50 (IGROV1 ovarian): 0.495 µM | TGI (IGROV1 ovarian): 2.92 µM | GI50 (CCRF-CEM leukemia): 0.243 µM | TGI (CCRF-CEM leukemia): 0.514 µM | GI50 (LOX IMVI melanoma): 1.74 µM | TGI (LOX IMVI melanoma): 3.27 µM | GI50 (OVCAR-4 ovarian): 0.935 µM | TGI (OVCAR-4 ovarian): 4.46 µM | GI50 (HOP-92 NSCLC): 0.461 µM | TGI (HOP-92 NSCLC): 1.56 µM | GI50 (T-47D breast): 0.382 µM | TGI (T-47D breast): 1.59 µM | GI50 (OVCAR-5 ovarian): 0.558 µM | TGI (OVCAR-5 ovarian): 1.98 µM | GI50 (TK-10 renal): 1.28 µM | TGI (TK-10 renal): 7.08 µM | GI50 (SF-268 CNS): 0.523 µM | TGI (SF-268 CNS): 1.81 µM | GI50 (NCI-H322M lung): 1.76 µM | TGI (NCI-H322M lung): 8.77 µM | GI50 (HCT-116 colon): 0.274 µM | TGI (HCT-116 colon): 0.685 µM | GI50 (A549 NSCLC): 0.348 µM | TGI (A549 NSCLC): 1.39 µM | GI50 (RPMI-8226 leukemia): 0.238 µM | TGI (RPMI-8226 leukemia): 0.447 µM | GI50 (UO-31 renal): 1.22 µM | TGI (UO-31 renal): 2.94 µM | GI50 (SK-MEL-5 melanoma): 0.378 µM | TGI (SK-MEL-5 melanoma): 1.58 µM | GI50 (NCI-H522 lung): 0.207 µM | TGI (NCI-H522 lung): 0.396 µM | GI50 (NCI-H226 lung): 1.13 µM | TGI (NCI-H226 lung): 2.6 µM | GI50 (A498 renal): 0.286 µM | TGI (A498 renal): 0.818 µM | GI50 (MDA-MB-468 breast): 0.187 µM | TGI (MDA-MB-468 breast): 0.374 µM | GI50 (DU-145 prostate): 0.382 µM | TGI (DU-145 prostate): 1.98 µM | GI50 (HL-60(TB) leukemia): 0.487 µM | TGI (HL-60(TB) leukemia): 1.39 µM | GI50 (HCT-15 colon): 0.545 µM | TGI (HCT-15 colon): 2.88 µM | GI50 (MCF7 breast): 0.309 µM | TGI (MCF7 breast): 1.18 µM | GI50 (MDA-MB-231 breast): 0.654 µM | TGI (MDA-MB-231 breast): 2.39 µM | GI50 (SF-539 CNS): 0.233 µM | TGI (SF-539 CNS): 0.579 µM | GI50 (MDA-MB-435 melanoma): 0.54 µM | TGI (MDA-MB-435 melanoma): 2.7 µM | GI50 (PC-3 prostate): 1.37 µM | TGI (PC-3 prostate): 2.75 µM | GI50 (SNB-19 CNS): 0.413 µM | TGI (SNB-19 CNS): 1.44 µM | GI50 (NCI-H23 lung): 0.229 µM | TGI (NCI-H23 lung): 0.448 µM | GI50 (SR leukemia): 0.196 µM | TGI (SR leukemia): 0.369 µM | GI50 (CAKI-1 renal): 0.657 µM | TGI (CAKI-1 renal): 2.5 µM | GI50 (SF-295 CNS): 0.345 µM | TGI (SF-295 CNS): 1.12 µM | GI50 (HT29 colon): 1.23 µM | TGI (HT29 colon): 3.83 µM | GI50 (OVCAR-8 ovarian): 1.12 µM | TGI (OVCAR-8 ovarian): 2.49 µM | GI50 (KM12 colon): 0.39 µM | TGI (KM12 colon): 1.36 µM | GI50 (M14 melanoma): 0.394 µM | TGI (M14 melanoma): 1.36 µM | GI50 (MOLT-4 leukemia): 0.218 µM | TGI (MOLT-4 leukemia): 0.404 µM | GI50 (UACC-257 melanoma): 1.61 µM | TGI (UACC-257 melanoma): 3.57 µM | GI50 (NCI-H460 NSCLC): 0.204 µM | TGI (NCI-H460 NSCLC): 0.424 µM | GI50 (ACHN renal): 1.84 µM | TGI (ACHN renal): 4.04 µM | GI50 (COLO 205 colon): 1.94 µM | TGI (COLO 205 colon): 4.29 µM
